Data on 2 molecules can be found in publication PMC6430500, “3-Fluoro-4-hydroxyprolines: Synthesis, Conformational Analysis, and Stereoselective Recognition by the VHL E3 Ubiquitin Ligase for Targeted Protein Degradation” (Journal of the American Chemical Society, 2018).

Molecules are shown by their SMILES. Like-named read-outs stand apart in the source and are kept apart here.

Usually DC50 stands for the concentration giving 50% degradation. A higher DC50 goes with a less potent degrader.

Common to all, as to assay type: cell-based
The test system of one assay is MV4;11 cells. The assay can be described thus: CellTiter-Glo cell viability assay. To be noted: for EC50: MV4-11, 72 h. Here is the method:
MV4;11 cells (15000 cells per well) were dosed for 72 h with compounds serially diluted (1:3) on a clear-bottom 384-well plate with a final concentration of 0.05% (v/v) DMSO. After treatment, Promega CellTiter-Glo luminescent cell viability assay (G7572) was added to the cells according to the manufacturer instructions. The signal from each well was recorded on a BM G Labtech Pherastar luminescence plate reader with recommended settings.
Normalized data were analyzed and plotted with Graphpad Prism software in the ‘log(inhibitor) vs. response -- Variable slope (four parameters)’ module. EC50 values of each test compound were […]
(ATP-based viability assays read luminescence as a measure of living cells.)

For a further assay, the target named is T1, Brd2 (Homo sapiens, UniProt P25440).
T1 construct: endogenous in cells; host or cells: HeLa
The assay can be described thus: BET protein degradation in HeLa cells, Western blot. The conditions noted are these: 24 h. How it is done: (§1) HeLa and A549 cells were kept in DMEM (Gibco) supplemented with 10%(v/v) FBS (Gibco), 2 mM L-glutamine (Gibco), penicillin (100 units /mL) and streptomycin (100 µ g/mL) (Gibco). MV4;11 cells were kept in RPMI 1640 supplemented with 10%(v/v) FBS (Gibco), 2 mM L-glutamine (Gibco), penicillin (100 units /mL) and streptomycin (100 µg/mL) (Gibco). Cells were kept at 37 °C, 5% CO2.
(§2) Testing compounds in cells
(§3) HeLa cells (3 x 105) were seeded onto each well on a six-well plate 24 h before treatment with test compounds. To treat the cells with the test compounds, medium was replaced with fresh medium containing specified concentration of test compounds for specified time. At the end of treatment, cells were washed with PBS and then were lysed by applying RIPA buffer (Sigma, R0278) supplemented with Protease inhibitor (Roche, # 04693159001) and Benzonase (Sigma, E1014). Lysate was clarified by centrifugation (20,000 x g, 10 min, 4 °C). Supernatant was collected and protein concentration of was determined by BCA assay. The rest of the clarified lysate was kept at -80° C before further […]
(§4) Protein on gel was transferred to nitrocellulose membrane using Bio-Rad Transblot system according to manufacturer guidelines. Blots were probed with anti- Brd4 (AbCam, ab128874), anti-Brd3 (AbCam, ab50818), anti- Brd2 (AbCam, ab139690) and anti-β-actin (Cell Signaling, no. 4970) antibodies. Blots were developed with secondary anti-mouse IgG (Licor, 926-32210) or anti-rabbit IgG (Licor, 926- 32213) antibodies from Licor and bands visualized using Bio-Rad ChemiDoc MP […]
(§5) Western Blot Quantification#
(§6) Image processing and band intensity quantification were performed using Bio-Rad Image Lab software version 6.0.0. Reported band intensities are normalized to loading control, i.e., β-actin or tubulin for total lysates.
Background: A western blot detects proteins with antibodies after separation by electrophoresis.

Another assay addresses T2, Brd3 (Homo sapiens, UniProt Q15059).
T2 construct: endogenous in cells; host or cells: HeLa
The assay is described as above. To be noted: 24 h. Here is the method:
as §1, §2, §3, §4, §5, §6

T1 sequence (P25440 whole entry): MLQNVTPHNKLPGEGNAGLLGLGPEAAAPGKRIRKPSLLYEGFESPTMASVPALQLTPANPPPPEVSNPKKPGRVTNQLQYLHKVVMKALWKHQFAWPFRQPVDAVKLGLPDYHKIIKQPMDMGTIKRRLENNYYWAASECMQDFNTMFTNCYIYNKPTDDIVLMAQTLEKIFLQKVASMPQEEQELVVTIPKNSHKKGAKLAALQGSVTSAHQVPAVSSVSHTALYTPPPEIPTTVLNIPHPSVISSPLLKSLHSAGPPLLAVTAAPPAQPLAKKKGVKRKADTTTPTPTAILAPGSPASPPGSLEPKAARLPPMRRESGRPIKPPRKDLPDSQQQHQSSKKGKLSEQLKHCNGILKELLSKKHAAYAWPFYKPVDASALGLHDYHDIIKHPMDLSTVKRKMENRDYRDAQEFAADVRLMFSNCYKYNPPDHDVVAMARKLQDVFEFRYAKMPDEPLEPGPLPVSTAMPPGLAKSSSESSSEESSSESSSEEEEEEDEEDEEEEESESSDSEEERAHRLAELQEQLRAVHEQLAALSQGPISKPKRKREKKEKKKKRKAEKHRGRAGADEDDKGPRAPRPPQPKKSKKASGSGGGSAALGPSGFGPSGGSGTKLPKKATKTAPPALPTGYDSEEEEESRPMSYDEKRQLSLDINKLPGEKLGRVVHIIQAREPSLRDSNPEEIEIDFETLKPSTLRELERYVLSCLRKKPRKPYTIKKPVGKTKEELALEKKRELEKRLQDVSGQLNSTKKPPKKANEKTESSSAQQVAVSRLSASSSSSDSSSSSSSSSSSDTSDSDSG
T2 sequence (Q15059 whole entry): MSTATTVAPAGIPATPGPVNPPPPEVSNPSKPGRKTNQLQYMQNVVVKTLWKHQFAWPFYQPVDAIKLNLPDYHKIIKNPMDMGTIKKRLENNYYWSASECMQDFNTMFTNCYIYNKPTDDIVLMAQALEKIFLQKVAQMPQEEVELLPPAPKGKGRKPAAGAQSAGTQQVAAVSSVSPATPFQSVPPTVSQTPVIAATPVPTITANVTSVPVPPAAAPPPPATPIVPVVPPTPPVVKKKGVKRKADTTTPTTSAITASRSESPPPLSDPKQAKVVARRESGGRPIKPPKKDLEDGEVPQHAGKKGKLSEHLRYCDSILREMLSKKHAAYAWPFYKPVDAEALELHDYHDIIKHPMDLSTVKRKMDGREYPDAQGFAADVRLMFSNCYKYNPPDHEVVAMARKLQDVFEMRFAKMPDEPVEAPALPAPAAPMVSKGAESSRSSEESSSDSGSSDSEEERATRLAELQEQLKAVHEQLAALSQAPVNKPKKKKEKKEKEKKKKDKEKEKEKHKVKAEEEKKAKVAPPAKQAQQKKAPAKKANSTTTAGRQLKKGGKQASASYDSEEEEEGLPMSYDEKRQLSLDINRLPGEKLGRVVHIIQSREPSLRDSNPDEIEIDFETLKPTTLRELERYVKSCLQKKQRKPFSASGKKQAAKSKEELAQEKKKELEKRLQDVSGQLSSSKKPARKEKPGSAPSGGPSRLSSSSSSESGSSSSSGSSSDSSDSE

For `Cc1ncsc1-c1ccc(CNC(=O)[C@@H]2[C@@H](F)[C@@H](O)CN2C(=O)[C@@H](NC(=O)COCCOCCOCCNC(=O)C[C@@H]2N=C(c3ccc(Cl)cc3)c3c(sc(C)c3C)-n3c(C)nnc32)C(C)(C)C)cc1` [15a], the “pEC50, antiproliferative activity” value with MV4;11 cells (72 h) stood at 6.5. In addition, the Emax with MV4;11 cells (Homo sapiens, 72 h, read-out: Emax, maximal response at highest concentration) stood at 92%. Also, the EC50 with MV4;11 cells (Homo sapiens, read-out: EC50, antiproliferative activity) is 330 nM; in the assay on MV4;11 cells (Homo sapiens, read-out: pEC50, antiproliferative activity (converted)) it was 330 nM. Besides, the DC50 at Brd2 and on Brd3 was roughly 10 nM each time.

`Cc1ncsc1-c1ccc(CNC(=O)[C@@H]2[C@H](F)[C@@H](O)CN2C(=O)[C@@H](NC(=O)COCCOCCOCCNC(=O)C[C@@H]2N=C(c3ccc(Cl)cc3)c3c(sc(C)c3C)-n3c(C)nnc32)C(C)(C)C)cc1` [15b]: in the assay with MV4;11 cells (72 h, compared to MZ1 or 15a), the “antiproliferative effect (in words)” value is “much weaker antiproliferative effect”. The DC50 on Brd2 and on Brd3 was roughly 3000 nM each time.
